The values below come from article PMC8533333, “Melatonin Analogues Potently Inhibit MAO-B and Protect PC12 Cells against Oxidative Stress” (Antioxidants, 2021).

Each structure is given as a SMILES string. Bounds are passed on as bounds.

The target in series [1] is T1, Human recombinant MAO-B (hMAO-B) (Homo sapiens, UniProt P27338).
T1 construct: purchased Sigma Aldrich; host or cells: insect cells
T1 sequence (P27338 1-520): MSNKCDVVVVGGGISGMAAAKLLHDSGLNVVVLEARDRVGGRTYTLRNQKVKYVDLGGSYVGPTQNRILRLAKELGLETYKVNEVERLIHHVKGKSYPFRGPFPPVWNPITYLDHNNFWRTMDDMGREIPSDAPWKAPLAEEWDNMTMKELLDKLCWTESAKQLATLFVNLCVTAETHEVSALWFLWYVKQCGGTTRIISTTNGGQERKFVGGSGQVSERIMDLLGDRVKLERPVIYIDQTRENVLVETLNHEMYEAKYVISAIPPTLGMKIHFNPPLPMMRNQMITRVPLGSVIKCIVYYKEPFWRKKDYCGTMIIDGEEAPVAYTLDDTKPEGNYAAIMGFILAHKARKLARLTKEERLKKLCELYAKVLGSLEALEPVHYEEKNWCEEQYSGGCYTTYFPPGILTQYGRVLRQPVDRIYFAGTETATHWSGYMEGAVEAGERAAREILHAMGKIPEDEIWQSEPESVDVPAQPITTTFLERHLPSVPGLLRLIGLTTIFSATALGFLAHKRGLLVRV
Kind of series: MAO-B enzyme assay (Amplex Red, resorufin fluorescence). The format is biochemical. As to conditions: for inhibition at 10 µM: single dose 10 µM; for Selectivity Index (SI): IC50 (MAO-A)/IC50 (MAO-B); for IC50: five doses 10-0.001 µM, triplicate. Here is the method: (§1) Biological evaluation of the synthesized melatonin derivatives over both MAO-A and MAO-B was performed as reported previously. A detailed description of the protocol is in the Supplementary Materials.
First, the synthesized melatonin analogues (3a–x) were biologically evaluated over an MAO-B recombinant enzyme. The experiment was performed using Amplex® Red reagent technology. This technology offers quantitative enzyme activity sensitive detection, a wider dynamic range, and fluorescence emission outside the range of compound autofluorescence (if any). The Amplex® Red reagent is a colorless substrate that reacts with H2O2 in a 1:1 stoichiometry to produce a highly fluorescent resorufin; therefore, the induced inhibitory effects of the melatonin analogues over MAO-B were examined via spectrophotometry where the fluorescence rate of resorufin dye formation was measured.
Accordingly, compounds 3n, 3r, and 3u–w were further tested to determine their IC50 values over MAO-B in triplicate from the dose–response inhibition curves using Sigma-Plot software 13.0.
(§2) 6. Materials and methods of monoamine oxidase (MAO) enzyme assay
The inhibitory activity of MAO-A, B enzyme of the compounds was evaluated based on previously described method. The MAO activity was measured in relative fluorescence units (RFU) evoked by peroxidase-catalyzed oxidation of Amplex Red® to resorufin, in which H2O2 generated by MAO reaction was used as the […]. Human recombinant MAO-A (hMAO-A) and MAO-B (hMAO-B) enzyme expressed in insect cells were obtained from Sigma Aldrich. The 2 μL of test compound in DMSO (final concentration: 1 nM – 10 μM) was treated with 98 μL of hMAO enzyme solution in 50 mM sodium phosphate buffer (pH 7.4, final protein amounts: ~1.25 μg protein/well for MAO-A and ~2.5 μg protein/well for MAO -B) on 96-well black plate and incubated for 15 min at 37 °C. Then 100 μL of reaction working solution which is mixed solution of 400 μM Amplex Red® (Cayman, final concentration: 200 μM), 2 U/mL horseradish peroxidase ( Sigma-Aldrich, final concentration: 1 U/mL) and 2 mM substrate ( p-tyramine for MAO -A, benzylamine for MAO -B, Sigma-Aldrich, final concentration: 1 mM) in 50 mM sodium phosphate buffer (pH 7.4) were added and incubated for 20 min at 37 °C in the dark. The fluorescent intensity was quantified using a microplate reader (SpectraMax®i3, Molecular Device) with an excitation at 545 nm and an emission at 590 nm. The 50% inhibitory concentrations (IC50) of compounds were determined as the mean ± S.E.M. in triplicate from the dose-response inhibition curves using SigmaPlot® 13.0. […]

In series [2] the target is T2, Human recombinant MAO-A (hMAO-A) (Homo sapiens, UniProt P21397).
T2 construct: purchased Sigma Aldrich; host or cells: insect cells
T2 sequence (P21397 1-527): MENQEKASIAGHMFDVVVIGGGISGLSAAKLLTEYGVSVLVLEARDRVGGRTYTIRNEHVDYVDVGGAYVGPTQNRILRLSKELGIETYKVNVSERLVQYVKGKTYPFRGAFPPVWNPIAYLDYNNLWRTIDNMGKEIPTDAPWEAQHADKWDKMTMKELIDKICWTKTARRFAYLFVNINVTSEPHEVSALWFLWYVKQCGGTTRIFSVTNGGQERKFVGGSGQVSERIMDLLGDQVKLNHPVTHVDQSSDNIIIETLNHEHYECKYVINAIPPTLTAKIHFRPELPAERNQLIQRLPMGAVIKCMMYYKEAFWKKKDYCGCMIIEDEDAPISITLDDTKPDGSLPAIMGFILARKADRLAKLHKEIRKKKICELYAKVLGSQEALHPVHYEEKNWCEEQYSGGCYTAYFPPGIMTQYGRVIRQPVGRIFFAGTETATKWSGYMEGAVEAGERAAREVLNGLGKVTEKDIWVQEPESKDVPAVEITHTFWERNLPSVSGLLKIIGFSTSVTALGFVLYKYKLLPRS
The series is described as follows: MAO-A enzyme assay (Amplex Red), selectivity. The format is biochemical. As for the experimental part: as §1, §2
The inhibitory activity of MAO-A, B enzyme of the compounds was evaluated based on previously described method. The MAO activity was measured in relative fluorescence units (RFU) evoked by peroxidase-catalyzed oxidation of Amplex Red® to resorufin, in which H2O2 generated by MAO reaction was used as the […]. Human recombinant MAO-A (hMAO-A) and MAO-B (hMAO-B) enzyme expressed in insect cells were obtained from Sigma Aldrich. The 2 μL of test compound in DMSO (final concentration: 1 nM – 10 μM) was treated with 98 μL of hMAO enzyme solution in 50 mM sodium phosphate buffer (pH 7.4, final protein amounts: ~1.25 μg protein/well for MAO-A and ~2.5 μg protein/well for MAO -B) on 96-well black plate and incubated for 15 min at 37 °C. Then 100 μL of reaction working solution which is mixed solution of 400 μM Amplex Red® (Cayman, final concentration: 200 μM), 2 U/mL horseradish peroxidase ( Sigma-Aldrich, final concentration: 1 U/mL) and 2 mM substrate ( p-tyramine for MAO -A, benzylamine for MAO -B, Sigma-Aldrich, final concentration: 1 mM) in 50 mM sodium phosphate buffer (pH 7.4) were added and incubated for 20 min at 37 °C in the dark. The fluorescent intensity was quantified using a microplate reader (SpectraMax®i3, Molecular Device) with an excitation at 545 nm and an emission at 590 nm. The 50% inhibitory concentrations (IC50) of compounds were determined as the mean ± S.E.M. in triplicate from the dose-response inhibition curves using SigmaPlot® 13.0.
monoamine oxidase inhibitors. Bioorganic & medicinal chemistry 2015, 23, 6486-6496,

For another series, the system named is MAO-B. Also noted: method as in PMID 32752896. To be noted: cited from earlier work.

For `O=C(Nc1ccc2[nH]ccc2c1)c1ccccc1` [3a, N-(1H-indol-5-yl)benzamide], in series [1], the inhibition at 10 µM came out at 14.9 ± 0.8%.

Regarding `O=C(Nc1ccc2[nH]ccc2c1)c1ccccc1Br` [3b, 2-Bromo-N-(1H-indol-5-yl)benzamide], the melting point was 231 to 233 °C. Further, the inhibition at 10 µM in series [1] amounted to 0.27 ± 0.81%.

With `O=C(Nc1ccc2[nH]ccc2c1)c1ccc(Br)cc1` [3c, 4-Bromo-N-(1H-indol-5-yl)benzamide], the melting point lay in the range of 209 to 210 °C. For the same compound, the inhibition at 10 µM in series [1] was found to be 37.1 ± 0.7%.

Take `O=C(Nc1ccc2[nH]ccc2c1)c1ccc(Cl)cc1Cl` [3d, 2,4-Dichloro-N-(1H-indol-5-yl)benzamide]: the melting point was 161 to 162 °C. For the same compound, the inhibition at 10 µM in series [1] was found to be 22.9 ± 0.7%.

For the compound `O=C(Nc1ccc2[nH]ccc2c1)c1cc([N+](=O)[O-])cc([N+](=O)[O-])c1` [3e, N-(1H-indol-5-yl)-3,5-dinitrobenzamide], the inhibition at 10 µM in series [1] worked out at 2.75 ± 0.2%.

The compound `O=C(Nc1ccc2[nH]ccc2c1)c1cccc([N+](=O)[O-])c1` [3f, N-(1H-indol-5-yl)-3-nitrobenzamide] returned a melting point of 214 to 215 °C. For the same compound, in series [1], the inhibition at 10 µM turned out to be 54.25 ± 0.37%.

With `O=C(Nc1ccc2[nH]ccc2c1)c1ccc([N+](=O)[O-])cc1` [3g, N-(1H-indol-5-yl)-4-nitrobenzamide], the melting point fell in the range of 262 to 264 °C. Besides, the inhibition at 10 µM in series [1] came out at 61 ± 0.69%.

In the case of `O=C(Nc1ccc2[nH]ccc2c1)c1c(F)cccc1F` [3h, 2,6-Difluoro-N-(1H-indol-5-yl)benzamide], the melting point is 236 to 237 °C. Moreover, the inhibition at 10 µM in series [1] is -0.02 ± 0.26%.

`O=C(Nc1ccc2[nH]ccc2c1)c1cccc(F)c1` [3i, 3-Fluoro-N-(1H-indol-5-yl)benzamide] came in with a melting point of 166 to 168 °C. The inhibition at 10 µM in series [1] is 35.3 ± 0.76%.

As for `O=C(Nc1ccc2[nH]ccc2c1)c1ccc(F)cc1` [3j, 4-Fluoro-N-(1H-indol-5-yl)benzamide], the inhibition at 10 µM in series [1] was 58.3 ± 1.02%.

`O=C(Nc1ccc2[nH]ccc2c1)c1ccccc1F` [3k, 2-Fluoro-N-(1H-indol-5-yl)benzamide] had a melting point of 179 to 181 °C. Besides, the inhibition at 10 µM in series [1] turned out to be 37.86 ± 0.33%.

`O=C(Nc1ccc2[nH]ccc2c1)c1ccc(F)cc1C(F)(F)F` [3l, 4-Fluoro-N-(1H-indol-5-yl)-2-(trifluoromethyl)benzamide] yielded a melting point of 153 to 154 °C. The inhibition at 10 µM in series [1] worked out at 1.49 ± 0.26%.

For the compound `N#Cc1cccc(C(=O)Nc2ccc3[nH]ccc3c2)c1` [3m, 3-Cyano-N-(1H-indol-5-yl)benzamide], the melting point was in the range of 188 to 189 °C. Besides, the inhibition at 10 µM in series [1] stood at 8.33 ± 0.59%.

As to `O=C(Nc1ccc2[nH]ccc2c1)c1ccccc1Cl` [3o, 2-Chloro-N-(1H-indol-5-yl)benzamide], the inhibition at 10 µM in series [1] turned out to be 2.39 ± 0.31%.

On to `O=C(Nc1ccc2[nH]ccc2c1)c1ccc(Cl)cc1` [3p, 4-Chloro-N-(1H-indol-5-yl)benzamide], for which the inhibition at 10 µM in series [1] worked out at 57.98 ± 0.07%.

Compound `CC(C)(C)c1ccc(C(=O)Nc2ccc3[nH]ccc3c2)cc1` [3q, 4-(Tert-butyl)-N-(1H-indol-5-yl)benzamide] came in with a melting point of 189 to 190 °C. The inhibition at 10 µM in series [1] amounted to 50.01 ± 0.04%.

In turn, `O=C(Nc1ccc2[nH]ccc2c1)c1cccc(OC(F)(F)F)c1` [3s, N-(1H-indol-5-yl)-3-(trifluoromethoxy)benzamide] gave a melting point of 130 to 132 °C. Further, the inhibition at 10 µM in series [1] is 68.34 ± 0.25%.

With `O=C(Nc1ccc2[nH]ccc2c1)c1ccc(OC(F)(F)F)cc1` [3t, N-(1H-indol-5-yl)-4-(trifluoromethoxy)benzamide], the melting point lay within 195 to 196 °C. In series [1], the inhibition at 10 µM was determined as 63.23 ± 0.45%.

As for `O=C(Nc1ccc2[nH]ccc2c1)c1cccc(C(F)(F)F)c1` [3u, N-(1H-indol-5-yl)-3-(trifluoromethyl)benzamide], the melting point was in the range of 148 to 150 °C. Further, the IC50 in series [2] was greater than 100000 nM. Further, in series [1], the “Selectivity Index (SI)” value is listed as greater than 83, the IC50 was 1200 nM and the inhibition at 10 µM was 85.12 ± 0.22%.

In turn, `O=C(Nc1ccc2[nH]ccc2c1)c1ccc(C(F)(F)F)cc1` [3v, N-(1H-indol-5-yl)-4-(trifluoromethyl)benzamide] yielded a melting point of 206 to 207 °C. For the same compound, the IC50 in series [2] is greater than 100000 nM. In series [1], the “Selectivity Index (SI)” value is recorded as greater than 151, the IC50 amounted to 660 nM and the inhibition at 10 µM was found to be 91.22 ± 0.11%.

For `O=C(Nc1ccc2[nH]ccc2c1)c1cc(Cl)cc(Cl)c1` [3w, 3,5-Dichloro-N-(1H-indol-5-yl)benzamide], the melting point was in the range of 199 to 201 °C. Moreover, the half-inhibitory concentration (IC50) in series [2] is greater than 100000 nM. Further, in series [1], the “Selectivity Index (SI)” value is greater than 41, the IC50 was found to be 2410 nM and the inhibition at 10 µM stood at 72.63 ± 0.32%.

`O=C(Nc1ccc2[nH]ccc2c1)c1c(Cl)cccc1Cl` [3x, 2,6-Dichloro-N-(1H-indol-5-yl)benzamide]: the melting point is 221 to 223 °C. Also, the inhibition at 10 µM in series [1] worked out at 0.89 ± 0.31%.

As for `O=C(Nc1ccc2c(ccn2C(=O)c2cccc(F)c2)c1)c1cnccn1` [N-(1-(3-fluorobenzoyl)-1H-indol-5-yl)pyrazine-2-carboxamide], the IC50 in the series with MAO-B is 780 nM. Further, the inhibitory constant (Ki) on MAO-B (competitive) is 94.5 nM.

As for `C#CCN[C@@H]1CCc2ccccc21` [rasagiline, reference compound], the “Selectivity Index (SI)” value in series [1] is greater than 50.

As usually defined, the inhibition is the relative decrease from the control value, in per cent. A word on the melting point: it is the temperature of the solid-liquid transition. Broadly, the IC50 is the concentration needed to halve the response being measured. As usually defined, the Ki is a dissociation constant, usually derived from enzyme kinetics or from competition with a known ligand.
